The results in this text go back to a melting point compilation (Tetko et al.; mined from patent text by program, amines drawn as free bases though some values may be those of a salt).

For orientation: melting point means the temperature, or range, at which the solid turns liquid.

Where only a bound is given, the exact number is not on record here.

On to `COc1ccccc1NC(=O)c1ccccc1SSc1ccccc1C(=O)Nc1ccccc1OC`, for which the melting point fell in the range of 154 to 155 °C.

For the compound `CCC(N1CCC(Oc2c(F)c(F)c(F)c(F)c2F)CC1)n1c(=O)[nH]c2ccccc21` (configuration not stated), the melting point fell in the range of 117 to 120 °C.

Take `Cn1cc(C2=C(c3cn(CCCNS(=O)(=O)c4ccccc4)c4ccccc34)C(=O)NC2=O)c2ccccc21`: the melting point is 125 to 128 °C.

`OCC1OC(n2cnc3c(NN4CCCC4)nc(I)nc32)C(O)C1O` (configuration not stated) showed a melting point of 216 to 217 °C.

In turn, `O=C1N[C@H](C(=O)NCCCCO)CS1` gave a melting point of 81 to 83 °C.

In the case of `CC(C)Oc1ccc2c(c1)OC(C(F)(F)F)C(C(=O)O)=C2` (configuration not stated), the melting point was in the range of 161 to 163 °C.

`CCOC(=O)c1sc(-n2ccc(OCCC3CC3)cc2=O)nc1C` came in with a melting point of 188 to 190 °C.

On to `Cc1c(F)cc(C(C)(C)C)c(O)c1-c1nc2ccc(S(=O)(=O)C(F)(F)F)cc2c(=O)[nH]1`, for which the melting point was in the range of 257 to 258 °C.

Consider `COc1ccc2nc(-c3ccc4c(c3)NC(=O)C4(C)C)[nH]c2c1`, for which the melting point fell in the range of 85 to 90 °C.

On to `N#CCCCSc1cccc(NC(N)=NCC(F)(F)F)n1`, for which the melting point was 89 to 91 °C.

In the case of `COc1ccc(CN2C(=O)C3(COc4cc5c(cc43)OCCO5)c3ccccc32)cc1OC` (configuration not stated), the melting point lay in the range of 209 to 211 °C.

Take `OCc1cc(-c2nnc3c4ccccc4c(OCc4ccccn4)nn23)no1`: the melting point fell in the range of 129 to 131 °C.

`CC(=O)NCc1ccc(CO)cc1[N+](=O)[O-]` had a melting point of 133 to 135 °C.

Consider `CCN(CC)CCNC(=O)c1cc(I)cc2c(=O)cc[nH]c12`, for which the melting point was in the range of 141 to 143 °C.

`O=C1C(=c2[nH]c(=c3[nH]c(=C4C(=O)N(c5ccccc5)C(=O)N(c5ccccc5)C4=O)c4ccccc34)c3ccccc23)C(=O)N(c2ccccc2)C(=O)N1c1ccccc1` displayed a melting point above 300 °C.

In the case of `CNC(=N)Nc1c(Cl)cccc1Cl`, the melting point amounted to 140 °C.

Compound `O=C(O)C12CC3(F)CC(F)(CC(F)(C3)C1)C2` gave a melting point of 198 to 199 °C.

The compound `CNC(=O)N1CCC(C(Nc2ccc(F)cc2)c2ccc(F)cc2)CC1` (configuration not stated) displayed a melting point of 86 to 90 °C.

`Cc1ccc(-c2ccccc2NC(=O)NN)cc1` came in with a melting point of 148 to 151 °C.

`Cc1c(SCCN2CCNCC2)ccnc1CSc1nc2ccccc2[nH]1` gave a melting point of 166 to 168 °C.

In turn, `Cc1nc(C)c(Cl)c(NCc2nccc(OCCCCSCCn3c([N+](=O)[O-])cnc3C)c2C)n1` yielded a melting point of 114 to 117 °C.

As for `COc1cc(OC)c2c(c1)S(=O)(=O)N(CCl)C2=O`, the melting point was in the range of 185 to 187 °C.

For `COc1ccccc1-c1n[nH]c2c(Cl)cc(C)nc12`, the melting point lay in the range of 184 to 190 °C.

`CC(C)c1cc(CCC(=O)O)cc(C(C)C)c1O` came in with a melting point of 106 °C.

On to `CCOC(=O)C(=O)C1COc2ccccc2C1=O` (configuration not stated), for which the melting point lay in the range of 73 to 75 °C.

Turning to `CC(=O)c1ccc(-c2ccc(OCc3nc4ccccc4s3)cc2)c(F)c1`, the melting point was 170 to 172 °C.

As to `CCCCCCC(C)(C)c1ccc([C@@H]2CC(=O)C[C@@H](C#N)C2)c(OCc2ccccc2)c1` (relative stereo), the melting point was found to be 79 °C.

The compound `Cc1nc(N2CCN(Cc3ccccc3)CC2)ncc1C(=O)O` gave a melting point of 192 °C.

For the compound `CCCCSc1cc(C(=O)OC)cc(S(N)(=O)=O)c1Cc1ccccc1`, the melting point was in the range of 118 to 120 °C.

The compound `CCOc1ccccc1CS(N)(=O)=O` displayed a melting point of 92 to 93 °C.

On to `Cc1nn(CC(O)c2ccc(Cl)cc2)c(=O)n1-c1ccc(N2CCN(c3ncc(O)cn3)CC2)cc1` (configuration not stated), for which the melting point was determined as 244 °C.

In turn, `O=C(NCCCC1CC1)c1ccc(N2CCC(N3C(=O)C(F)(F)c4ccccc43)CC2)nn1` displayed a melting point of 51 to 53 °C.

In the case of `[N-]=[N+]=NCc1ccc(C(=O)c2c(Cl)cccc2Cl)cc1`, the melting point is 92 to 94 °C.

Take `Nc1nc2c([N+](=O)[O-])cc(OC(F)(F)F)cc2s1`: the melting point turned out to be 260 °C.

As for `CC(C)Cc1nn(-c2ccccc2)c(CC(C)C)c1CC(=O)O`, the melting point was 125 to 126 °C.

For `CCCC(=O)Nc1n[nH]c2cc(-c3ccc(O)cc3)ccc12`, the melting point amounted to 235 °C.

In the case of `N#Cc1cc(-c2c3ccccc3cc3sc4ccccc4c23)cc(C#N)c1O`, the melting point lay within 274 to 276 °C.

`CC(C)(C)C(=O)Nc1nc(O)c2c(n1)NCC(CO)C2` (configuration not stated) showed a melting point of 236 to 238 °C.

Regarding `O=[N+]([O-])c1cccc(Nc2nccc(-c3ccncc3)n2)c1`, the melting point was in the range of 282 to 284 °C.

Turning to `c1ccc(Sc2sc(-c3ccccc3)cc2-c2ccccc2)cc1`, the melting point lay within 96 to 97 °C.

`CCOCc1nc2c(N)nc3cc(Br)ccc3c2n1CC1(O)CCCC1` had a melting point of 128 to 130 °C.

`O=C1O[C@@H](CO)CN1c1ccc(I)c(F)c1` displayed a melting point of 116 to 117 °C.

In turn, `COc1ccc(CCOc2nccc(-c3cccc(C(=O)O)c3)n2)cc1OC` gave a melting point of 171 to 172 °C.

Compound `CCSCCCN(C)c1c(S(=O)(=O)C(F)(F)F)c(C#N)nn1-c1c(Cl)cc(C(F)(F)F)cc1Cl` registered a melting point of 89 °C.

In the case of `O=C(NC1CCCCC1)NS(=O)(=O)c1ccc2c(c1)CCN(C(=O)N1CCCCCC1)CC2`, the melting point was in the range of 155 to 156 °C.

In turn, `CCCC[C@@H](NC(=O)[C@H](Cc1ccc(O)cc1)NC(=O)OC(C)(C)C)C(=O)NCC(=O)Oc1c(Cl)c(Cl)c(Cl)c(Cl)c1Cl` had a melting point of 175 to 177 °C.

Regarding `O=C(CCN1CCCCC1)Nc1cccc(NC(=O)Nc2ccc(N(CCCl)CCCl)cc2)c1`, the melting point lay in the range of 108 to 110 °C.

With `O=[N+]([O-])c1ccccc1S(=O)(=O)c1ccccc1`, the melting point was 145 to 146 °C.

As for `CCOC(=O)C(C)C(=O)Nc1cccc(S)c1` (configuration not stated), the melting point was 73 to 75 °C.

As to `Cc1nc2sccn2c1C1=NNC(=O)OC1`, the melting point was 294 °C.

In the case of `CCOCCc1ccc(OCCNc2ncnc(COC)c2Cl)c(C)c1`, the melting point fell in the range of 39 to 41 °C.

The compound `O=c1c(Cc2cccnc2)cn2c3ccccc3c3cc(OCCCO)cc1c32` showed a melting point of 72.5 to 78.6 °C.

As for `COc1ccc(C=Cc2cc(I)c(OC)c(OC)c2)cc1O`, the melting point lay in the range of 92 to 94 °C.

For the compound `CCC1(CCCN=[N+]=[N-])C(=O)NC(=O)NC1=O`, the melting point was 182 to 184 °C.

`CN(C(=O)Nc1ccccc1)C1CCCCC1` came in with a melting point of 195 to 197 °C.

Regarding `COc1ccccc1N1CCN(C(=S)Nc2nc3ccccc3nc2OC)CC1`, the melting point lay in the range of 160 to 162 °C.

Compound `CCCc1nc2cccc(C(=O)OC)c2n1Cc1ccc(-c2ccccc2-c2nnn[nH]2)cc1` had a melting point of 195 to 196 °C.

`C#CCOc1ccc2c(c1)Sc1cc([N+](=O)[O-])ccc1N2`: the melting point was in the range of 226 to 227 °C.

With `Fc1ccc2c(N3CCN(CCCCn4cc5ccccc5c4)CC3)csc2c1`, the melting point fell in the range of 118 to 120 °C.

`O=C(O)CN1C(=O)C(=Cc2ccc(OCc3ccc(OC(F)(F)F)cc3)c(OCc3ccccc3)c2)SC1=S` yielded a melting point of 195 to 199 °C.

In turn, `CCOCc1nc2c(N)nc3ccccc3c2n1CC1(OCCS(C)(=O)=O)CCC1` showed a melting point of 221 to 223 °C.

In turn, `Cc1oc(-c2ccc3ccccc3c2)nc1COc1ccc(C=O)cc1` showed a melting point of 163 to 164 °C.

`CCCc1nc2c(N)nc3ccccc3c2n1CCCC(C)N(OC)C(=O)NC1CCCC1` (configuration not stated) showed a melting point of 182 to 184 °C.

In the case of `O=C(O)c1cccc(-c2ccc3c(c2)N(Cc2ccc(Cl)cc2Cl)CC3)c1`, the melting point lay in the range of 175 to 176 °C.

Take `O=Cc1cccc(/C=C/c2nc(C3CCC3)cs2)c1`: the melting point fell in the range of 78 to 80 °C.

`CN(C)c1nc(-c2ccc(Cl)cc2)c(CCC(=O)O)o1` came in with a melting point of 189 to 190 °C.

`COc1ccc(-c2ccc(N)nn2)cc1OC(C)C` yielded a melting point of 184 °C.

Compound `O=C(NC(=S)Nc1ccc(Cl)c(Cl)c1)c1c(Cl)cccc1Cl` gave a melting point of 240 °C.

As for `CCOC(=O)CC(=O)Nc1nc(C)cs1`, the melting point was 138 to 141 °C.

For the compound `O=CCc1ccc2c(c1[N+](=O)[O-])C(=O)c1ccccc1C2=O`, the melting point was 192 °C.

Compound `NC1=NC2(O)c3ccc(Cl)cc3CC2(F)S1` (configuration not stated) registered a melting point of 159 °C.

`COC(=O)NC(=O)Cc1nc(-c2cc(C(C)(C)C)c(O)c(C(C)(C)C)c2)oc1C` showed a melting point of 125 to 127 °C.

On to `Cc1c(C)c2c(c(C)c1N)C(c1ccc(Br)cc1)C(C)(C)O2` (single isomer, unassigned; (+)), for which the melting point fell in the range of 143 to 144 °C.

`COC(=O)c1cn2ccsc2n1` had a melting point of 153 to 156 °C.

Compound `O=C(O)CNC(=O)NC(=O)C(CC1CCCC1)c1ccc(Cl)c(Cl)c1` (configuration not stated) gave a melting point of 204 to 207 °C.

The compound `COC(=O)c1ccc(CNC(=O)C2Cc3ccccc3N2S(=O)(=O)c2ccc(-c3cccc(C(F)(F)F)c3)cc2)cc1` (configuration not stated) displayed a melting point of 70 °C.

Consider `Cc1ccc([C@H]2CCCN2[S@@](=O)C(C)(C)C)cc1`, for which the melting point is 62 to 64 °C.

The compound `O=C(c1ccc2nonc2c1)N1CCCC1` yielded a melting point of 97.8 to 99.3 °C.

`CCc1nc(/C=C/c2cn(-c3ccccc3)nc2OCc2ccc(OCc3nc(-c4ccc(CC(=O)O)cc4)oc3C)c(OC)c2)co1` returned a melting point of 117 to 119 °C.

In the case of `Cc1cc(-n2ccnc2)c2cccc(OCc3c(Cl)ccc(S(=O)(=O)N4CCCC4C(=O)NCC4CCCCN4C(=O)CC(=O)O)c3Cl)c2n1` (configuration not stated), the melting point was found to be 130 °C.

Regarding `CC1CCN(c2c(-c3c(F)cc(F)cc3F)c(Cl)nc3nc(S(C)(=O)=O)nn23)CC1`, the melting point came out at 206 °C.

In turn, `FC(F)(F)C1(c2cc(Cl)cc(Cl)c2)CC(c2ccc(CCl)cc2)=NO1` (configuration not stated) yielded a melting point of 98 to 100 °C.

With `CC(C)CCCc1c(C(C)C)nc(C(C)C)c(CO)c1-c1ccc(F)cc1`, the melting point fell in the range of 101 to 103 °C.

The compound `Brc1ccc(Cc2nccc(-c3ccc(Br)cc3)n2)cc1` registered a melting point of 93 to 94 °C.

The compound `N#CCCN1CCC(C2c3ccccc3C=Cc3ccccc32)CC1` had a melting point of 165 to 168 °C.

In turn, `O=C(NCCCSc1ccncc1)c1ccco1` came in with a melting point of 98 to 99 °C.

The compound `CCNc1ccc(Cc2ccc(NCC)c3ccccc23)c2ccccc12` came in with a melting point of 165 to 168 °C.
